Assay results published in patent US4542137A, “Alkylaminodesoxy-1.4;3.6-dianhydrohexitol nitrates substituted by purine bases and pharmaceutical compositions” (priority 1980, dated 1985).
Read-outs that look alike come from different tables or passages of the source.

Columns and labels:
[1] = tested on: mongrel cats; assay: inotropic and frequency-lowering heart circulation effectiveness on mongrel cats, intravenous; assay type: in vivo; design: heart frequency previously / dp/dt previously / dp/dt afterwards: unit not given beside the values; conditions: cat; for blood pressure afterwards / dp/dt afterwards / heart frequency afterwards: after; for blood pressure previously / dp/dt previously / heart frequency previously: before; for blood pressure Δ / dp/dt Δ / heart frequency Δ: change
Description: (§1) The animals were narcotised with a mixture of chloralose-urethane (1.2 g./kg. urethane+40 mg./kg. chloralose administered i.p.). They breathed spontaneously through a tracheal canula. The A. carotis sinistra was used in order to place a catheter tip manometer into the left heart chamber. The V. jugularis served for injection purposes. Via the A. femoralis dextra, a catheter was pushed in up to the Aorta descendans and attached to a pressure recorder (Statham P 23 Db). The heart frequency was recorded with a pulse frequency measurer (Firm Hugo Sachs Elektronik) from the left ventricular pressure signal.

[2] = acute toxicity in mice according to the method of Lichtfield and Wilcoxon; conditions: mouse, in vivo
Description: As to example 1d, the following values for acute toxicity were determined with a greater number of mice, according to the method of Lichtfield and Wilcoxon: […]

[3] = tested on: isolated rat aorta preparations; assay: spasmolytic effectiveness on isolated rat aorta preparations (noradrenaline- and potassium chloride-induced contractions)
[4] = tested on: guinea pigs; assay: blood pressure-lowering effectiveness on narcotised guinea pigs, i.v.; conditions: for blood pressure afterwards: after; for blood pressure previously: before; for blood pressure Δ: change
[5] = tested on: isolated guinea pig hearts; assay: coronary flowthrough-increasing effectiveness on isolated guinea pig hearts according to Langendorff; conditions: Cavia porcellus, 25 μg/ml in tyrode solution, Langendorff heart; for activation at 25 µg/mL: read-out: flowthrough (coronary), percentage change in comparison with the initial value
Description: After achieving the stationary state in the 30th minute, the hearts were each infused with 50 ml. tyrode solution with a content of test substance of, in each case, 25 μg./ml. Each test substance was tested on 3-6 hearts.
In each case, there was measured the inotropism, the flowthrough and the frequency, whereby the values given in Table I are average values of the percentage changes in comparison with the starting values.

[6] = tested on: mongrel cats; assay: inotropic and frequency-lowering heart circulation effectiveness on mongrel cats, intraduodenal; assay type: in vivo; conditions: cat, 5 mg/kg intraduodenal
Description: as §1, with “A. femoralis,” for “A. femoralis dextra,”, “pushed” for “pushed in”, “up into” for “up to”, “measurer (firm” for “measurer (Firm”, “signal. A duodenal loop was exposed by a laparotomy. The substances to be tested were injected directly into the lumen.” for “signal.”

[7] = read-out: ED50 for spasmolytic action, Noradrenaline spasm (50% inhibition)
[8] = read-out: ED50 for spasmolytic action, potassium chloride spasm (50% inhibition)
[9] = read-out: frequency, percentage change in comparison with the initial value
[10] = read-out: inotropism, percentage change in comparison with the initial value

Compound: Cn1c(=O)c2c(ncn2CCCN[C@H]2CO[C@H]3[C@@H]2OC[C@@H]3O[N+](=O)[O-])n(C)c1=O [Example 1d, 5-(3-Theophyllin-7-ylpropyl)-amino-5-desoxy-1.4;3.6-dianhydro-L-iditol 2-nitrate]
- blood pressure WD ([1]; 0.25 mg/kg i.v.): 27.71 min
- dp/dt WD ([1]; 0.25 mg/kg i.v.): 15.57 min
- blood pressure afterwards ([1]; 0.25 mg/kg i.v.): 64.86
- dp/dt afterwards ([1]; 0.25 mg/kg i.v.): 6086
- heart frequency afterwards ([1]; 0.25 mg/kg i.v.): 184.57
- blood pressure previously ([1]; 0.25 mg/kg i.v.): 103.00
- dp/dt previously ([1]; 0.25 mg/kg i.v.): 7371
- heart frequency previously ([1]; 0.25 mg/kg i.v.): 180.86
- blood pressure Δ ([1]; 0.25 mg/kg i.v.): -38.14
- dp/dt Δ ([1]; 0.25 mg/kg i.v.): -1285
- heart frequency Δ ([1]; 0.25 mg/kg i.v.): +3.71
- blood pressure WD ([1]; 0.50 mg/kg i.v.): 20.21 min
- dp/dt WD ([1]; 0.50 mg/kg i.v.): 24.57 min
- blood pressure afterwards ([1]; 0.50 mg/kg i.v.): 61.57
- dp/dt afterwards ([1]; 0.50 mg/kg i.v.): 5300
- heart frequency afterwards ([1]; 0.50 mg/kg i.v.): 182.29
- blood pressure previously ([1]; 0.50 mg/kg i.v.): 101.86
- dp/dt previously ([1]; 0.50 mg/kg i.v.): 6614
- heart frequency previously ([1]; 0.50 mg/kg i.v.): 178.29
- blood pressure Δ ([1]; 0.50 mg/kg i.v.): -40.29
- dp/dt Δ ([1]; 0.50 mg/kg i.v.): -1314
- heart frequency Δ ([1]; 0.50 mg/kg i.v.): +4.00
- blood pressure WD ([1]; 1.00 mg/kg i.v.): 24.29 min
- dp/dt WD ([1]; 1.00 mg/kg i.v.): 19.58 min
- blood pressure afterwards ([1]; 1.00 mg/kg i.v.): 59.86
- dp/dt afterwards ([1]; 1.00 mg/kg i.v.): 5186
- heart frequency afterwards ([1]; 1.00 mg/kg i.v.): 182.00
- blood pressure previously ([1]; 1.00 mg/kg i.v.): 103.43
- dp/dt previously ([1]; 1.00 mg/kg i.v.): 5957
- heart frequency previously ([1]; 1.00 mg/kg i.v.): 174.00
- blood pressure Δ ([1]; 1.00 mg/kg i.v.): -43.57
- dp/dt Δ ([1]; 1.00 mg/kg i.v.): -771
- heart frequency Δ ([1]; 1.00 mg/kg i.v.): +8.00
- blood pressure WD ([1]; 2.50 mg/kg i.v.): > 10 min
- dp/dt WD ([1]; 2.50 mg/kg i.v.): 6.42 min
- blood pressure afterwards ([1]; 2.50 mg/kg i.v.): 63.88
- dp/dt afterwards ([1]; 2.50 mg/kg i.v.): 6550
- heart frequency afterwards ([1]; 2.50 mg/kg i.v.): 180.33
- blood pressure previously ([1]; 2.50 mg/kg i.v.): 107.50
- dp/dt previously ([1]; 2.50 mg/kg i.v.): 6383
- heart frequency previously ([1]; 2.50 mg/kg i.v.): 169.67
- blood pressure Δ ([1]; 2.50 mg/kg i.v.): -43.62
- dp/dt Δ ([1]; 2.50 mg/kg i.v.): +167
- heart frequency Δ ([1]; 2.50 mg/kg i.v.): +10.66
- LD50 ([2]; ip, printed range (678.6-851.2), read-out: LD50 i.p.): 760 mg/kg
- LD50 ([2]; iv, printed range (190.4-251.9), read-out: LD50 i.v.): 219 mg/kg
- LD50 ([2]; po, read-out: LD50 p.o.): 1600 mg/kg
- IC50 [3, 7]: 0.56 µM
- IC50 [3, 8]: 2.9 µM
- blood pressure afterwards ([4]; 0.25 mg/kg i.v.): 49.75 ± 2.78 mm. Hg
- blood pressure previously ([4]; 0.25 mg/kg i.v.): 67.75 ± 3.27 mm. Hg
- blood pressure Δ ([4]; 0.25 mg/kg i.v.): -18.00 mm. Hg
- blood pressure afterwards ([4]; 1.00 mg/kg i.v.): 40.00 ± 2.12 mm. Hg
- blood pressure previously ([4]; 1.00 mg/kg i.v.): 68.00 ± 3.85 mm. Hg
- blood pressure Δ ([4]; 1.00 mg/kg i.v.): -28.00 mm. Hg
- blood pressure afterwards ([4]; 2.50 mg/kg i.v.): 37.50 ± 1.76 mm. Hg
- blood pressure previously ([4]; 2.50 mg/kg i.v.): 66.25 ± 2.66 mm. Hg
- blood pressure Δ ([4]; 2.50 mg/kg i.v.): -28.75 mm. Hg
- blood pressure-lowering effectiveness compared with ISMN or ISDN ([4]; i.v., narcotised guinea pigs): more effective than ISMN or ISDN
- activation at 25 µg/mL [5]: 56.4%
- inhibition at 25 µg/mL [5, 9]: 1.95%
- inhibition at 25 µg/mL [5, 10]: 1.29%
- blood pressure ([6]; 0 min): 115.4 ± 14.4 mm. Hg
- dp/dt ([6]; 0 min): 6000 ± 1367 mm sec.
- frequency ([6]; 0 min): 173.2 ± 14.5 min⁻¹
- blood pressure ([6]; 10 min): 86.0 ± 13.8 mm. Hg
- dp/dt ([6]; 10 min): 4880 ± 1371 mm sec.
- frequency ([6]; 10 min): 173.6 ± 14.8 min⁻¹
- blood pressure Δ ([6]; 10 min vs 0): -29.4 mm. Hg
- dp/dt Δ ([6]; 10 min vs 0): -1120 mm sec.
- blood pressure ([6]; 30 min): 88.6 ± 14.8 mm. Hg
- dp/dt ([6]; 30 min): 4500 ± 1312 mm sec.
- frequency ([6]; 30 min): 166.0 ± 15.6 min⁻¹
- blood pressure Δ ([6]; 30 min vs 0): -26.8 mm. Hg
- dp/dt Δ ([6]; 30 min vs 0): -1440 mm sec.
- blood pressure ([6]; 60 min): 95.0 ± 14.4 mm. Hg
- dp/dt ([6]; 60 min): 5020 ± 1330 mm sec.
- frequency ([6]; 60 min): 168.4 ± 14.0 min⁻¹
- blood pressure Δ ([6]; 60 min vs 0): -20.4 mm. Hg
- dp/dt Δ ([6]; 60 min vs 0): -980 mm sec.
- blood pressure ([6]; 120 min): 99.4 ± 13.2 mm. Hg
- dp/dt ([6]; 120 min): 5100 ± 1341 mm sec.
- frequency ([6]; 120 min): 164.8 ± 13.2 min⁻¹
- blood pressure Δ ([6]; 120 min vs 0): -16.0 mm. Hg
- dp/dt Δ ([6]; 120 min vs 0): -900 mm sec.

Compound: CN(CCCn1cnc2c1c(=O)n(C)c(=O)n2C)[C@H]1CO[C@H]2[C@@H]1OC[C@@H]2O[N+](=O)[O-] [Example 9c, 5-[N-Methyl-N-(3-theophyllin-7-ylpropyl)-amino]-5-desoxy-1.4;3.6-dianhydro-L-iditol 2-nitrate]
- IC50 [3, 7]: 2.95 µM
- IC50 [3, 8]: 45.9 µM
- activation at 25 µg/mL [5]: 40.5%
- percent change from initial value at 25 µg/mL [5, 9]: 0%
- inhibition at 25 µg/mL [5, 10]: 4.3%
